Data published in patent publication US20100056526A1, “HETEROMONOCYCLIC COMPOUND AND USE THEREOF” (Takeda Pharmaceutical Company Limited, priority 2006, published 2010).
Where two headings read alike, the source gives them in different places.

Tests used:
PPARγ = target: T1, PPARγ (Homo sapiens, UniProt P37231); assay: Evaluation of PPARγ activating action (luciferase reporter in PPARγ:RXRα:4ERPP/CHO-K1 cells); type: cell-based; settings: CHO-K1, 24 h, read-out: PPARγ activating action (activation % (10^−6 M))
T1 construct: expressed in transfected cells; host or cells: CHO-K1
T1 sequence (P37231 1-477 isoform P37231-2): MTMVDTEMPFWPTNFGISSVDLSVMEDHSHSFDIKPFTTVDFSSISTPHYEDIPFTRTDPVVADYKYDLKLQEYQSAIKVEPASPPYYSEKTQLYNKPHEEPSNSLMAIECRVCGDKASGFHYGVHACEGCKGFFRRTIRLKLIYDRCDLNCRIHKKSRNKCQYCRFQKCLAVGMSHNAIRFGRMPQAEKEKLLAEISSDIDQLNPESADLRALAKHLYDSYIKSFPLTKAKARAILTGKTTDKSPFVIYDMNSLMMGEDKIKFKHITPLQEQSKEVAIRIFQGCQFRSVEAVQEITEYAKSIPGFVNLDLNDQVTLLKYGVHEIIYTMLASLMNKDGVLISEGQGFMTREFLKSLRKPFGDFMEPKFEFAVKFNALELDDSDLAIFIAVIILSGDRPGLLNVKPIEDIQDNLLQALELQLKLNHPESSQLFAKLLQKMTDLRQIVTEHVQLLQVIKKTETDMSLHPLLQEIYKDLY
T1 sequence (P19793 1-462 partner): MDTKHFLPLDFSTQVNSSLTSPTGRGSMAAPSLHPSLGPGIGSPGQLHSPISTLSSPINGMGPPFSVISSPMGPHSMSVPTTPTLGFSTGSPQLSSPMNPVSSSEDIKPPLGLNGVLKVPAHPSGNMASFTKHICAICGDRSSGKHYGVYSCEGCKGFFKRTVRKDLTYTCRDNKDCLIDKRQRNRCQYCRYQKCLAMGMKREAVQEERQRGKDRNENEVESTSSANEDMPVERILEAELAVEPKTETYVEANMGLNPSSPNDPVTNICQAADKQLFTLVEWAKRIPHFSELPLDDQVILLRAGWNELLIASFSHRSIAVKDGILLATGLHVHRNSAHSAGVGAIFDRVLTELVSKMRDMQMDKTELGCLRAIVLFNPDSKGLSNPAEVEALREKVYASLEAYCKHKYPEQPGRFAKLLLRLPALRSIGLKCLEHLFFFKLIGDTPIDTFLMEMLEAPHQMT
Description: PPARγ:RXRα:4ERPP/CHO-K1 cells obtained in the following Reference Example 5 were cultured in F12 medium [manufactured by INVITROGEN, USA] containing 10% fetal bovine serum [manufactured by MOREGATE, Australia], seeded in a 96-well half area white plate [manufactured by Corning Coster Corporation, USA] at the density of 5×10^3 cells/well and cultured in a CO2 gas incubator at 37° C. overnight.
Then the medium was removed from the 96-well half area white plate, 45 μl of Ham's F12 medium containing 0.1% fatty acid-free bovine serum albumin (BSA) and 5 μl of test compound were added, and the cells were cultured in a CO2 gas incubator at 37° C. for 1 day. The medium was removed and 20 μl of PicaGene 7.5 [manufactured by TOYO INK MFG. CO., LTD.,.Japan] diluted 2-fold with HBSS (HANKS' BALANCED SALT SOLUTION) [manufactured by BIO WHITTAKER, USA] was added. After stirring, the luciferase activity was determined using 1420 ARVO Multilabel Counter [manufactured by PerkinElmer, USA].
The percent (%) was calculated from the luciferase activity of each test compound when the luciferase activity of the control compound (compound X: 5-[3-(4-{[2-(2-furyl)-5-methyl-1,3-oxazol-4-yl]methoxy}-3-methoxyphenyl)propyl]-1,3-oxazolidine-2,4-dione) (1 μM) was 100% and that of the test compound non-administration group was 0%.
A CHO-K1 cell cultured in a 150 cm^2 cell culture flask [manufactured by Corning Costar Corporation, USA] containing Ham's F12 medium [manufactured by INVITROGEN, USA] supplemented with 10% fetal bovine serum [manufactured by INVITROGEN, USA] was scraped by treating with 0.5 g/L trypsin-0.2 g/L EDTA (ethylenediaminetetraacetic acid) [manufactured by Life Technologies, Inc., USA], and then the cell was washed with PBS (Phosphate-buffered saline) [manufactured by INVITROGEN, USA], centrifuged (1000 rpm, 5 minutes) and suspended in PBS. Subsequently, DNA was introduced into the cell under the conditions shown below using GENE PULSER [manufactured by Bio-Rad Laboratories, USA].
Namely, to a cuvette having a 0.4 cm gap were added 8×10^6 cells and 10 μg of plasmid pVgRXR2-hPPARγ obtained in Reference Example 4 and 10 μg of reporter plasmid pGL3-4ERPP-TK neo obtained in Reference Example 3, which was subjected to electroporation at the voltage of 0.25 kV under the capacitance of 960 μF. Subsequently, the cell was transferred into a F12 medium containing 10% fetal bovine serum and cultured for 24 hours, and then the cell was scraped again and centrifuged, and then suspended in Ham's F12 medium containing 10% fetal bovine serum supplemented with 500 μg/ml of Geneticin [manufactured by INVITROGEN, USA] and 250 μg/ml of Zeocin [manufactured by INVITROGEN, USA]. The obtained suspension was diluted to the density of 10^4 cells/ml and inoculated in a 96-well plate [manufactured by Corning Costar Corporation, USA], which was cultured in a CO2 gas incubator at 37° C., whereby obtaining a Geneticin- and Zeocin-resistant transformant.
Subsequently, after the transformant cell line thus obtained was cultured in a 24-well plate [manufactured by Corning Costar Corporation, USA], a cell line in which the luciferase was expressed and induced, i.e., PPARγ:RXRα:4ERPP/CHO-K1 cell was selected by the addition of 10 μM pioglitazone hydrochloride.

human AT1 receptor = target: T2, human AT1 receptor (Homo sapiens, UniProt P30556); assay: Binding assay using human AT1 receptor-expressing CHO-K1 cell membrane fraction ([125I]-angiotensin II); settings: 22.5 pM [125I]-angiotensin II, 9 μg AT1 membrane, 1 hr room temperature; read-out: AT1 receptor binding inhibitory action (IC50 (nM))
T2 construct: expressed in transfected cells; host or cells: CHO-K1
T2 sequence (P30556 1-359): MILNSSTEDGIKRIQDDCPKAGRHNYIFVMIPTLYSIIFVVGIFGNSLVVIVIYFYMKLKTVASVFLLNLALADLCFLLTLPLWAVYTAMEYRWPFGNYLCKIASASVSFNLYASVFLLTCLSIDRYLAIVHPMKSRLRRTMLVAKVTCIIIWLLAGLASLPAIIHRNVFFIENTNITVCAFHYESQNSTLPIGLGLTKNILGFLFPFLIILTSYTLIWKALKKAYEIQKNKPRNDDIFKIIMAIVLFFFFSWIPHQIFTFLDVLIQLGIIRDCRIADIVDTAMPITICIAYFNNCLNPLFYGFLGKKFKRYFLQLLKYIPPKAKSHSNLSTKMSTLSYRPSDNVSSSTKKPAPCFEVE
Description: The membrane fraction for human AT1 receptor binding assay was prepared as follows. CHO-K1 cell capable of stable expression of human AT1 receptor was cultured, recovered, suspended in homogenize buffer (10 mM NaHCO3 (pH 7.4), 5 mM EDTA, 1×Complete EDTA free) [manufactured by Roche, Switzerland], and homogenized. The homogenate was centrifuged at low-speed (900×g, 10 min, 4° C.), and the supernatant was recovered and ultracentrifuged (90,000×g, 1 hr, 4° C.). The supernatant was discarded, and the pellets were resuspended in resuspension buffer (50 mM Tris (pH 7.4), 1 mM EDTA, 1×Complete EDTA free).
The binding assay was performed in the presence of 22.5 pM [^125I]-angiotensin II [manufactured by PerkinElmer, USA], 9 μg of AT1 membrane and test compound in 100 μL (total reaction volume) of reaction buffer (50 mM Tris (pH 7.4), 10 mM MgCl2 supplemented or not supplemented with 0.3 mg/mL fatty acid-free bovine serum albumin [manufactured by Wako Pure Chemical Industries, Ltd., Japan]). The reaction mixture was incubated in 96 well polypropylene plate for 1 hr at room temperature, and the reaction was quenched by rapid filtration (96 well cell harvester) through a GF/C filter treated with wash buffer (50 mM Tris (pH 7.4)). Subsequently, the filter was washed 5 times with 0.3 mL of ice-cooled wash buffer. The filter was air-dried, and [^125I]-angiotensin II binding radioactivity was assayed with Top Count scintillation counter. Total binding was measured in the presence of 1% DMSO and nonspecific binding was measured in the presence of 1 μM CV-11974. The binding data was analyzed by GraphPad Prism program and the IC50 value (compound concentration showing 50% of the maximum value of inhibition percent) of the test compound was calculated.

[1] = test compound 10^−6 M, luciferase activity relative to control compound X (1 μM) = 100%, non-administration group = 0%

Structure (SMILES) | activation at 1 µM (PPARγ; [1]) | IC50 (human AT1 receptor) | activation at 1 µM (PPARγ)
CCCc1nc(OC)n(-c2ccc(OC(C)(C)C)cc2)c(=O)c1Cc1ccc(-c2ccccc2-c2noc(O)n2)cc1 [Example 369, 3-(4-tert-butoxyphenyl)-2-methoxy-5-{[2′-(5-oxo-4,5-dihydro-1,2,4-oxadiazol-3-yl)biphenyl-4-yl]methyl}-6-propylpyrimidin-4(3H)-one] | 36.3% | 1.9 nM | –
CCCc1nc(CC)c(-c2ccc(OCC3CC3)nc2)c(=O)n1Cc1ccc(-c2ccccc2-c2noc(=O)[nH]2)cc1 [Example 500, 5-[6-(cyclopropylmethoxy)pyridin-3-yl]-6-ethyl-3-{[2′-(5-oxo-4,5-dihydro-1,2,4-oxadiazol-3-yl)biphenyl-4-yl]methyl}-2-propylpyrimidin-4(3H)-one] | 35.9% | 2.7 nM | –
CCSc1nc(C)c(Cc2ccccc2)c(=O)n1Cc1ccc(-c2ccccc2-c2noc(=O)[nH]2)cc1 [Example 3, 5-benzyl-2-(ethylthio)-6-methyl-3-{[2′-(5-oxo-4,5-dihydro-1,2,4-oxadiazol-3-yl)biphenyl-4-yl]methyl}pyrimidin-4(3H)-one] | 57.1% | 2.5 nM | –
CCCc1nc(C)n(OC2CCOCC2)c(=O)c1Cc1ccc(-c2ccccc2-c2noc(=O)[nH]2)cc1 [Example 379, 2-methyl-5-{[2′-(5-oxo-4,5-dihydro-1,2,4-oxadiazol-3-yl)biphenyl-4-yl]methyl}-6-propyl-3-(tetrahydro-2H-pyran-4-yloxy)pyrimidin-4(3H)-one] | 31% | 3.4 nM | –
CCCc1nc(C)n(-c2ccc(OC(CC)CC)cc2)c(=O)c1Cc1ccc(-c2ccccc2-c2noc(=O)[nH]2)cc1 [Example 256, 3-[4-(1-ethylpropoxy)phenyl]-2-methyl-5-{[2′-(5-oxo-4,5-dihydro-1,2,4-oxadiazol-3-yl)biphenyl-4-yl]methyl}-6-propylpyrimidin-4(3H)-one] | 45.7% | 2 nM | –
CCCc1nc(C)c(CC2CCCCO2)c(=O)n1Cc1ccc(-c2ccccc2-c2noc(=O)[nH]2)cc1 (stereo not shown) [Example 7, 6-methyl-3-{[2′-(5-oxo-4,5-dihydro-1,2,4-oxadiazol-3-yl)biphenyl-4-yl]methyl}-2-propyl-5-(tetrahydro-2H-pyran-2-ylmethyl)pyrimidin-4(3H)-one] | 42.6% | 1.4 nM | –
CCCc1nc(C)n(C=C(C)C)c(=O)c1Cc1ccc(-c2ccccc2-c2noc(=O)[nH]2)cc1 [Example 323, 2-methyl-3-(2-methylprop-1-en-1-yl)-5-{[2′-(5-oxo-4,5-dihydro-1,2,4-oxadiazol-3-yl)biphenyl-4-yl]methyl}-6-propylpyrimidin-4(3H)-one] | 20% | 2.1 nM | –
CCCCc1nc(OC)n(-c2ccccc2)c(=O)c1Cc1ccc(-c2ccccc2-c2noc(=O)[nH]2)cc1 [Example 108, 6-butyl-2-methoxy-5-{[2′-(5-oxo-4,5-dihydro-1,2,4-oxadiazol-3-yl)biphenyl-4-yl]methyl}-3-phenylpyrimidin-4(3H)-one] | 31.7% | 2.2 nM | –
CCCc1nc(CC)c(-c2ccc(OC(C)C)nc2)c(=O)n1Cc1ccc(-c2ccccc2-c2noc(=O)[nH]2)cc1 [Example 483, 6-ethyl-5-(6-isopropoxypyridin-3-yl)-3-{[2′-(5-oxo-4,5-dihydro-1,2,4-oxadiazol-3-yl)biphenyl-4-yl]methyl}-2-propylpyrimidin-4(3H)-one] | 31.5% | 2.4 nM | –
CCCCc1nc(CC)n(Cc2ccccc2)c(=O)c1Cc1ccc(-c2ccccc2-c2noc(=O)[nH]2)cc1 [Example 105, 3-benzyl-6-butyl-2-ethyl-5-{[2′-(5-oxo-4,5-dihydro-1,2,4-oxadiazol-3-yl)biphenyl-4-yl]methyl}pyrimidin-4(3H)-one] | – | 1.9 nM | 64.1%
CCCc1nc(CC)n(-c2ccc(OC3CCOCC3)cc2)c(=O)c1Cc1ccc(-c2ccccc2-c2noc(=O)[nH]2)cc1 [Example 378, 2-ethyl-5-{[2′-(5-oxo-4,5-dihydro-1,2,4-oxadiazol-3-yl)biphenyl-4-yl]methyl}-6-propyl-3-[4-(tetrahydro-2H-pyran-4-yloxy)phenyl]pyrimidin-4(3H)-one] | 46.9% | 1.5 nM | –
